Assay results: patent US10653797B2, “Compounds and compositions for targeting brain injuries and methods of use thereof” (SANFORD BURNHAM PREBYS MEDICAL DISCOVERY INSTITUTE, priority 2015, dated 2020)
Residues, ends and D or L forms follow the SMILES beside them. FAM = fluoresceinamine label

Key:
[1] = system: penetrating brain injury (PBI); assay type: in vivo, mouse; settings: for Peptide signal in injured brain 3 hours after injection (retention): mouse, in vivo; for Homing to the injured brain (FAM fluorescence, immunohistochemical staining): i.v. 6 hours after PBI, 30 minutes circulation
Method: All animal experiments were conducted under an approved protocol of the Institutional Animal Care and Use Committee of Sanford Burnham Prebys Medical Discovery Institute. Eight to ten week old male BL6 mice were anesthetized with 4% isoflurane (Aerrane; Baxter, UK) in 70% N2O and 30% O2 and positioned in a stereotaxic frame. Using a head restraint, a 5-mm craniotomy was made using a portable drill and a trephine over the right parietotemporal cortex and the bone flap was removed. Penetrating brain injury model was used as described (Kielian et al., J. Immunol. 166:4634-4643 (2001); Kielian, J. Neuroinflammation 1:16 (2004)). Nine needle punctures using a 21 G needle were made 3 mm deep according to a 3×3 grid, spaced 1 mm in width and 1 mm in height. For traumatic brain injury, a Controlled Cortical Impact (CCI) model was used as described (Krajewska et al., PLoS One 6:e24341 (2011)). Mice were subjected to CCI using the benchmark stereotaxic impactor (Impact One™; myNeuroLab.com) with the actuator part mounted directly on the stereotaxic instrument. The impactor (3 mm in diameter) tip accelerated down to the 1.0 mm distance, reaching the preset velocity of 3 m/s, and the applied electromagnetic force remained there for the dwell time of 85 ms, and then retracted automatically. The contact sensor indicated the exact point of contact for reproducible results. In both models, facemask anesthesia (1-2% isoflurane in 70%/30% nitrous oxide/oxygen) was used during the entire procedure and afterwards, the scalp was closed with sutures, anesthesia discontinued, and mice were administered buprenorphine i.p. for pain control. For the first 2 hours after injury, mice were closely monitored in their cages.
CLARITY was performed on freshly-extracted brain tissues as described (Chung et al., Nature 497:332-337 (2013)). Briefly, mice were intravenously injected with FAM-labeled peptides 6 hours after brain injury. After 30-minute circulation, mice were intracardially perfused with PBS and hydrogel solution (Acrylamide (4%), bis (0.05%), VA-044 Initiator (0.25%), paraformaldehyde 4% in PBS). Following perfusion, the tissues were incubated in the hydrogel solution at 4° C. for 2-3 days. At UCSD Neuroscience Core and Light Microscopy Facility the tissues were then degased with nitrogen and incubated at 37° C. for 3-4 hours for polymerization. Samples were then passively cleared in 4% SDS solution for around 4 weeks until the tissue became transparent. Finally, the samples were washed in PBS-T for 2 days and incubated in gradient glycerol solutions: 30, 50 and 80%, about 1 day each and stored in 80% glycerol at room temperature until imaged on a confocal microscope (Leica SP5).
Animals were intravenously injected, six hours after injury, with 50 nmoles of peptide dissolved in PBS, and allowed to circulate for 30 minutes. Mice were perfused intracardially with saline and organs were isolated and imaged using the Illumatool Bright Light System LT-9900 (Lightools Research). Brains and organs were placed in 4% PFA at pH 7.4 overnight, washed with PBS and placed in graded sucrose solutions overnight before OCT embedding. 10 μm thick sections were cut and analyzed by immunofluorescence. For a complete histological analysis, sections were stained with the Movat pentachrome kit (American Mastertech Inc.) following the manufacturer's instructions.
Frozen sections were permeabilized using PBS-Triton (0.2%), blocking was carried out using 5% blocking buffer: 5% BSA, 1% goat serum, 1% donkey serum in PBS-T. Primary antibodies were incubated in diluted (1%) blocking buffer overnight at dilutions 1/100 or 1/200 at 4° C., washed with PBS-T and incubated with secondary antibodies diluted 1/200 or 1/500 in 1% diluted buffer for one hour at room temperature, subsequently washed with PBS-T, counterstained with DAPI 1 μg/mL in PBS for five minutes, washed with PBS, mounted using mounting media (Vector Biolabs), and imaged on a confocal microscope (Zeiss LSM-710). […]

[2] = system: fluid percussion injury; settings: intracerebroventricular administration after fluid percussion injury in rats; cited from earlier work
[3] = target: T1, Tenascin-R (Mus musculus, UniProt Q8BYI9); assay: Peptide affinity chromatography and mass spectrometry of PBI brain extract; assay type: binding; settings: mouse PBI brain lysate 6 hrs after injury, eluted with 2 mM free CAQK; mean of three technical replicates
T1 construct: from tissue; host or cells: mouse brain, 6 h after penetrating brain injury (detergent lysate)
T1 sequence (Q8BYI9 32-1358): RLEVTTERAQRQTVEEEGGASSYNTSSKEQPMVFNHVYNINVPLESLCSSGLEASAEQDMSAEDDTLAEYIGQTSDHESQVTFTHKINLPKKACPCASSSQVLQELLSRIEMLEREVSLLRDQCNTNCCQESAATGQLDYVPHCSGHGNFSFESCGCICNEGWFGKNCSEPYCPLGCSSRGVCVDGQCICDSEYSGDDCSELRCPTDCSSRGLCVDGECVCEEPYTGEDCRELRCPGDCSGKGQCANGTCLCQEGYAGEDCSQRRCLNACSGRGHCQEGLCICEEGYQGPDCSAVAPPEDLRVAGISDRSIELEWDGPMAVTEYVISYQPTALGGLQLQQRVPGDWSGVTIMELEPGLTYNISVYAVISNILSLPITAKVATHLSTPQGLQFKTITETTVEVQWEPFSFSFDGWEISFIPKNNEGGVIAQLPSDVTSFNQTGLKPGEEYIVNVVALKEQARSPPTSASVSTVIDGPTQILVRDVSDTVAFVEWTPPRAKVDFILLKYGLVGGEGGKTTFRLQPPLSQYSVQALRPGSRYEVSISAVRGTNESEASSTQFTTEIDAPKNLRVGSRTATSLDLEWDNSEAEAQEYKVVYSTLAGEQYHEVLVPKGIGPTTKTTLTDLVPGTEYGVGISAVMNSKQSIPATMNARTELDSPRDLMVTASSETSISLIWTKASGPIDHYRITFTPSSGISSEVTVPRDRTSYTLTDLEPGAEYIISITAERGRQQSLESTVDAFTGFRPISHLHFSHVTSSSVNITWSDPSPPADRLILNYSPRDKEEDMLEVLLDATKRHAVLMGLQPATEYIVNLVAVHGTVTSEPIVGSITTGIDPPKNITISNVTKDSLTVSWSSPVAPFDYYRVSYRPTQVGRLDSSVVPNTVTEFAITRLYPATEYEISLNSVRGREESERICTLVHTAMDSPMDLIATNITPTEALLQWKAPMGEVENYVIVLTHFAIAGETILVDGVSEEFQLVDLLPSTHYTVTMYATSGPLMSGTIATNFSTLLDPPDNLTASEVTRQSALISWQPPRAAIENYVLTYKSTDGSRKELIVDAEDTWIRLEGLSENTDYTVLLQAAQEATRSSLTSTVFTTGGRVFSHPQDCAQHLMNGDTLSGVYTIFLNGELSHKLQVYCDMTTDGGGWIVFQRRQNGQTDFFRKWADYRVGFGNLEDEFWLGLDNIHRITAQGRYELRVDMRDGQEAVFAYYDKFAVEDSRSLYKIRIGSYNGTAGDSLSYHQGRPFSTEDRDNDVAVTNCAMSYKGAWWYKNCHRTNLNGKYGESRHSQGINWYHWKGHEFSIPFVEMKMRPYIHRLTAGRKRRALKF
Method: For identifying CAQK binding proteins, mouse brains with brain injury were collected 6 hrs after injury. Using liquid nitrogen, the brains were crushed and ground into powder using a mortar and pestle. Next, brain tissue was lysed in PBS containing 200 mM n-octyl-beta-D-glucopyranoside and protease inhibitor cocktail (Roche) as described (Teesalu et al., PNAS 16157-16162 (2009)). The cleared lysate was loaded on to CAQK or control peptide (CGGK) coated Sulfolink-agarose beads (Pierce, Waltham, Mass.) and incubated at 4° C. for 3-4 hrs. The column was washed with wash buffer (75 mM octyl-beta-D-glucopyranoside and protease inhibitor cocktail in PBS) followed by washing with 0.5 mM control peptide in wash buffer to remove nonspecifically bound proteins. The bound proteins were eluted with 2 mM free CAQK peptide. The eluted factions were pooled, their protein concentration determined by using bicinchoninic acid (BCA) protein assay (Thermo Fischer) and the samples were digested using the Filter-aided Sample Preparation (FASP) method (Wisniewski et al., Nat Methods 6:359-362 (2009)). Finally, the digested samples were desalted, dried, and subjected to LC-MS/MS analysis at the Proteomics Core facility of the Sanford Burnham Prebys Medical Discovery Institute. All mass spectra were analyzed with MaxQuant software version 1.5.0.25. […] Empty column denotes protein was not detected.

C[C@H](NC(=O)[C@@H](N)CS)C(=O)N[C@@H](CCC(N)=O)C(=O)N[C@@H](CCCCN)C(N)=O [CAQK] (H-CAQK-NH2)
Peptide signal in injured brain 3 hours after injection (retention) [1]: visible

CN1CC[C@H](c2c(O)cc(O)c3c(=O)cc(-c4ccccc4Cl)oc23)[C@H](O)C1 [flavopiridol]
Reduction of lesion volume [2]: approximately 70%

CGGK ({FAM}-CGGK-NH2) [control peptide of the same length and overall charge as CAQK, immobilized on Sulfolink-agarose beads]
Log2 LFQ intensity, Tenascin-R (TNR) in column eluate [3]: 24.14

FAM-CAQK: chemically synthesized fluoresceinamine (FAM)-labeled CAQK peptide ({FAM}-CAQK-NH2)
Homing to the injured brain (FAM fluorescence, immunohistochemical staining) [1]: selective homing to the injured brain | FAM signal in clarified whole brain (CLARITY) ([1]; i.v. 6 hours after injury, 30-minute circulation): restricted to the injured quadrant of the brain | Co-localization and cellular localization of i.v. injected peptide signal in injured brain ([1]; immunofluorescence of PBI brain sections): prominently accumulated at mature oligodendrocytes

FAM-CGGK: FAM-labeled control peptide (CGGK) of the same length and overall charge as CAQK ({FAM}-CGGK-NH2)
Homing to the injured brain (FAM fluorescence, immunohistochemical staining) [1]: minimal fluorescent signal | Peptide signal in injured brain 3 hours after injection (retention) [1]: completely washed out
